Results taken from PMC7144209, “Design, synthesis and anticancer activity of naphthoquinone derivatives” (Journal of Enzyme Inhibition and Medicinal Chemistry, 2020).

Legend:
[1] = tested on: U87; test: MTT cell viability assay, U87 cells; format: cell-based; conditions: Homo sapiens, U-87 MG, 48 h, n = 3
Protocol: (§1) MGC-803, SGC-7901, U87 and SMMC-7721 cell lines were cultured in DMEM supplemented with 10% foetal bovine serum, 100 IU/mL penicillin/streptomycin. The cells were incubated in an atmosphere containing 5% CO2 at 37 °C.
(§2) MGC-803, SGC-7901, U87 and SMMC-7721 cells were plated in 96-well plate at 7000 per well. Cells were incubated with the different concentrations of the compounds for 48 h. Subsequently, MTT (0.5 mg/mL) were used to test the cell viability, then 150 μL DMSO was added to each well after cells were incubated for 4 h and the absorbance was measured at 492 nm.

[2] = tested on: SMMC-7721; test: MTT cell viability assay, SMMC-7721 cells; format: cell-based; conditions: Homo sapiens, 48 h, n = 3
Protocol: as §1, §2

[3] = tested on: SGC-7901; test: MTT cell viability assay, SGC-7901 cells; format: cell-based, human; conditions: Homo sapiens, SGC-7901, 48 h, n = 3
Protocol: as §1, §2

[4] = tested on: MGC-803; test: MTT cell viability assay, MGC-803 cells; format: cell-based; conditions: Homo sapiens, MGC-803, 48 h, n = 3
Protocol: as §1, §2

[5] = tested on: L02; test: MTT cell viability assay, L02 cells; format: cell-based; conditions: Homo sapiens, n = 3
[6] = tested on: SGC-7901, MGC-803, SMMC-7721, U-87 cell lines; test: MTT anticancer activity, summary in words over the cell line panel; format: cell-based; conditions: MTT assay
Protocol: as §2
Compounds 1–24 were detected for anticancer activities against SGC-7901, MGC-803, SMMC-7721, U-87 cell lines in vitro by the MTT assay, and ADM was used as the positive control. From Table 1, when the phenolic hydroxyls of naphthoquinone moiety were converted to ether, the activity was missing. […] So colony formation assay of this compound (Figure 4) was used to investigate the effect of it on cell proliferation in SGC-7901 cells. The experiment examined the ability for producing colonies after the cells were treated with the cell death agents[35]^,[36].

SMILES | IC50 [1] [µM] | IC50 [2] [µM] | IC50 [3] [µM] | IC50 [4] [µM] | IC50 [5] [µM] | anticancer activity (in words) [6] | melting point [°C]
CC(C)=CCC(OC(=O)CCC(=O)Nc1ccc(OC(F)(F)F)cc1)C1=CC(=O)c2c(O)ccc(O)c2C1=O (stereo not drawn) [Compound 13, 1-(5,8-dihydroxy-1,4-dioxo-1,4-dihydronaphthalen-2-yl)-4-methylpent-3-en-1-yl-4-oxo-4-((4-(trifluoromethoxy)phenyl)amino)butanoate] | 3.46 ± 0.31 | 16.9 ± 2.2 | 7.8 ± 3.7 | 10.2 ± 2.9 | 15.8 ± 1.1 | good activity | –
CC(C)=CCC(OC(=O)CCC(=O)N1CCCCC1)C1=CC(=O)c2c(O)ccc(O)c2C1=O (stereo not drawn) [Compound 7, 1-(5,8-dihydroxy-1,4-dioxo-1,4-dihydronaphthalen-2-yl)-4-methylpent-3-en-1-yl-4-oxo-4-(piperidin-1-yl)butanoate] | 9.68 ± 2.3 | 14.4 ± 1.5 | 33.6 ± 2.1 | 9.7 ± 2.3 | 36.8 ± 4.1 | – | 120
CC(C)=CCC(OC(=O)CCC(=O)N1CCOCC1)C1=CC(=O)c2c(O)ccc(O)c2C1=O (stereo not drawn) [Compound 8, 1-(5,8-dihydroxy-1,4-dioxo-1,4-dihydronaphthalen-2-yl)-4-methylpent-3-en-1-yl 4-morpholino-4-oxobutanoate] | 10 ± 1.6 | 16.7 ± 1.8 | 20 ± 3.9 | 10.4 ± 0.7 | > 50 | – | 105
CC(C)=CCC(OC(=O)CCC(=O)N1CCCc2ccccc21)C1=CC(=O)c2c(O)ccc(O)c2C1=O (stereo not drawn) [Compound 9, 1-(5,8-dihydroxy-1,4-dioxo-1,4-dihydronaphthalen-2-yl)-4-methylpent-3-en-1-yl-4-(3,4-dihydroquinolin-1(2H)-yl)-4-oxobutanoate] | 4.45 ± 0.66 | 12.3 ± 0.1 | 8.6 ± 2.5 | 3.1 ± 0.1 | 12.1 ± 0.8 | good activity | –
CC(C)=CCC(O)C1=CC(=O)c2c(OCc3ccccc3)ccc(OCc3ccccc3)c2C1=O (stereo not drawn) [Compound 2, 5,8-bis(benzyloxy)-2-(1-hydroxy-4-methylpent-3-en-1-yl)naphthalene-1,4-dione] | > 100 | > 100 | > 100 | > 100 | > 100 | – | 60
CCN(CC)C(=O)CCC(=O)OC(CC=C(C)C)C1=CC(=O)c2c(O)ccc(O)c2C1=O (stereo not drawn) [Compound 22, 1-(5,8-dihydroxy-1,4-dioxo-1,4-dihydronaphthalen-2-yl)-4-methylpent-3-en-1-yl 4-(diethylamino)-4-oxobutanoate] | 40.7 ± 4.7 | 46.5 ± 1.7 | 19.8 ± 1.8 | 9.4 ± 0.4 | > 50 | – | 77
CC(C)=CCC(OC(=O)/C=C\C(=O)N1CCOCC1)C1=CC(=O)c2c(O)ccc(O)c2C1=O (stereo not drawn) [Compound 24, 1-(5,8-dihydroxy-1,4-dioxo-1,4-dihydronaphthalen-2-yl)-4-methylpent-3-en-1-yl (Z)-4-morpholino-4-oxobut-2-enoate] | 20.6 ± 0.6 | 50.1 ± 0.8 | 38.5 ± 0.7 | 40.8 ± 1.9 | > 100 | – | 104
COc1ccc(NC(=O)CCC(=O)OC(CC=C(C)C)C2=CC(=O)c3c(O)ccc(O)c3C2=O)cc1 (stereo not drawn) [Compound 10, 1-(5,8-dihydroxy-1,4-dioxo-1,4-dihydronaphthalen-2-yl)-4-methylpent-3-en-1-yl-4-((4-methoxyphenyl)amino)-4-oxobutanoate] | 12.3 ± 2.8 | 12.4 ± 2.6 | 11.1 ± 1.2 | 7.9 ± 1.8 | 11.9 ± 0.6 | – | 115
CC(C)=CCC(OC(=O)CCC(=O)NCCc1ccc(F)cc1)C1=CC(=O)c2c(O)ccc(O)c2C1=O (stereo not drawn) [Compound 20, 1-(5,8-dihydroxy-1,4-dioxo-1,4-dihydronaphthalen-2-yl)-4-methylpent-3-en-1-yl 4-((4-fluorophenethyl)amino)-4-oxobutanoate] | 5.2 ± 1.4 | 18.6 ± 3.6 | 13.3 ± 0.6 | 3.5 ± 1.4 | 12.3 ± 0.5 | good activity | –
CC(C)=CCC(OC(=O)CCC(=O)NCCc1ccccc1F)C1=CC(=O)c2c(O)ccc(O)c2C1=O (stereo not drawn) [Compound 21, 1-(5,8-dihydroxy-1,4-dioxo-1,4-dihydronaphthalen-2-yl)-4-methylpent-3-en-1-yl 4-((2-fluorophenethyl)amino)-4-oxobutanoate] | 6.1 ± 0.6 | 15.4 ± 0.4 | 14.8 ± 1.6 | 6.9 ± 3.9 | 16 ± 2.2 | – | 91
CC(C)=CCC(OC(=O)CCC(=O)Nc1ccc(F)c(C(F)(F)F)c1)C1=CC(=O)c2c(O)ccc(O)c2C1=O (stereo not drawn) [Compound 11, 1-(5,8-dihydroxy-1,4-dioxo-1,4-dihydronaphthalen-2-yl)-4-methylpent-3-en-1-yl-4-((4-fluoro-3-(trifluoromethyl)phenyl)amino)-4-oxobutanoate] | 3.75 ± 0.77 | 9.5 ± 0.8 | 2.25 ± 1.5 | 8.4 ± 3.1 | 4 ± 0.1 | good activity | –
CC(C)=CCC(OC(=O)CCC(=O)NCCc1cccc(Cl)c1)C1=CC(=O)c2c(O)ccc(O)c2C1=O (stereo not drawn) [Compound 17, 1-(5,8-dihydroxy-1,4-dioxo-1,4-dihydronaphthalen-2-yl)-4-methylpent-3-en-1-yl-4-((3-chlorophenethyl)amino)-4-oxobutanoate] | 3.8 ± 1.7 | 15.9 ± 0.2 | 20.8 ± 0.5 | 6.7 ± 2.4 | 11.4 ± 1.8 | good activity | –
CC(C)=CCC(OC(=O)CCC(=O)Nc1ccc(Br)cc1)C1=CC(=O)c2c(O)ccc(O)c2C1=O (stereo not drawn) [Compound 14, 1-(5,8-dihydroxy-1,4-dioxo-1,4-dihydronaphthalen-2-yl)-4-methylpent-3-en-1-yl-4-((4-bromophenyl)amino)-4-oxobutanoate] | > 100 | 14.8 ± 0.1 | 10.7 ± 1.8 | 10.2 ± 1.3 | 16.2 ± 1.7 | – | 105
COc1cc(/C=C/CC(=O)OC(CC=C(C)C)C2=CC(=O)c3c(O)ccc(O)c3C2=O)cc(OC)c1OC (stereo not drawn) [Compound 5, 1-(5,8-dihydroxy-1,4-dioxo-1,4-dihydronaphthalen-2-yl)-4-methylpent-3-en-1-yl (E)-4-(3,4,5-trimethoxyphenyl)but-3-enoate] | > 100 | > 100 | > 100 | > 100 | > 100 | – | 54
